Reference: ChEMBL document CHEMBL5512674, “Novel Acyl Thiourea-Based Hydrophobic Tagging Degraders Exert Potent Anti-Influenza Activity through Two Distinct Endonuclease Polymerase Acidic-Targeted Degradation Pathways” (J Med Chem, 2024)
Activity calls are given as the source filed them. The rule behind the calls is not given here.

How the values were obtained:
Influenza A virus [1] = assay: Anti-influenza activity against Influenza A virus A/WSN/33(H1N1) infected in HEK293T cells assessed as reduction in virus-induced cytopathic effect incubated for 48 hrs by CCK-8 assay; assay type: functional, organism-based; details: HEK-293T
[2] = Cytotoxicity against human HEK293T cells assessed as reduction in cell viability incubated for 48 hrs by CCK-8 assay; assay type: toxicity, cell-based, HEK-293T
[3] = Selectivity index, ratio of CC50 for cytotoxicity against human HEK293T cells to EC50 for anti-influenza activity against Influenza A virus A/WSN/33(H1N1) infected in HEK293T cells assessed as reduction in virus-induced cytopathic effect; assay type: toxicity, cell-based; details: read-out: Ratio CC50/EC50
Influenza B virus [4] = assay: Anti-influenza activity against Influenza B virus Yamagata/16/88 infected in HEK293T cells assessed as reduction in virus-induced cytopathic effect incubated for 48 hrs by CCK-8 assay; assay type: functional, organism-based; details: Yamagata/16/88, HEK-293T
Influenza B virus [5] = assay: Anti-influenza activity against Influenza B virus Victoria/2/87 infected in HEK293T cells assessed as reduction in virus-induced cytopathic effect incubated for 48 hrs by CCK-8 assay; assay type: functional, organism-based; details: Victoria/2/87, HEK-293T
Influenza A virus [6] = assay: Anti-influenza activity against Influenza A virus H3N2 infected in HEK293T cells assessed as reduction in virus-induced cytopathic effect incubated for 48 hrs by CCK-8 assay; assay type: functional, organism-based; details: H3N2, HEK-293T
[7] = Half life in mouse liver microsomes preincubated for 5 mins followed by NADPH addition and measured for 45 mins by LC-MS analysis; assay type: ADME, Microsome; details: time 50 min
[8] = Half life in dog liver microsomes preincubated for 5 mins followed by NADPH addition and measured for 45 mins by LC-MS analysis; assay type: ADME, Canis lupus familiaris, Microsome; details: time 50 min
[9] = Half life in human liver microsomes preincubated for 5 mins followed by NADPH addition and measured for 45 mins by LC-MS analysis; assay type: ADME, Microsome; details: time 50 min
[10] = Intrinsic clearance in mouse liver microsomes preincubated for 5 mins followed by NADPH addition and measured for 45 mins by LC-MS analysis; assay type: ADME, Microsome; details: time 50 min, read-out: CLH
[11] = Intrinsic clearance in dog liver microsomes preincubated for 5 mins followed by NADPH addition and measured for 45 mins by LC-MS analysis; assay type: ADME, Canis lupus familiaris, Microsome; details: time 50 min, read-out: CLH
[12] = Intrinsic clearance in human liver microsomes preincubated for 5 mins followed by NADPH addition and measured for 45 mins by LC-MS analysis; assay type: ADME, Microsome; details: time 50 min, read-out: CLH
[13] = Hepatic clearance in mouse liver microsomes preincubated for 5 mins followed by NADPH addition and measured for 45 mins by LC-MS analysis; assay type: ADME, Microsome; details: time 50 min
[14] = Hepatic clearance in dog liver microsomes preincubated for 5 mins followed by NADPH addition and measured for 45 mins by LC-MS analysis; assay type: ADME, Canis lupus familiaris, Microsome; details: time 50 min
[15] = Hepatic clearance in human liver microsomes preincubated for 5 mins followed by NADPH addition and measured for 45 mins by LC-MS analysis; assay type: ADME, Microsome; details: time 50 min
[16] = Hepatic extraction ratio in mouse liver microsomes preincubated for 5 mins followed by NADPH addition and measured for 45 mins by LC-MS analysis; assay type: ADME, Microsome; details: time 50 min, read-out: ERH
[17] = Hepatic extraction ratio in dog liver microsomes preincubated for 5 mins followed by NADPH addition and measured for 45 mins by LC-MS analysis; assay type: ADME, Canis lupus familiaris, Microsome; details: time 50 min, read-out: ERH
[18] = Hepatic extraction ratio in human liver microsomes preincubated for 5 mins followed by NADPH addition and measured for 45 mins by LC-MS analysis; assay type: ADME, Microsome; details: time 50 min, read-out: ERH
[19] = Stability in human plasma assessed as compound remaining by LC-MS/MS analysis; assay type: ADME, cell-free
[20] = Stability in human plasma assessed as compound remaining measured after 5 mins by LC-MS/MS analysis; assay type: ADME, cell-free; details: read-out: Stability
[21] = Stability in human plasma assessed as compound remaining measured after 15 mins by LC-MS/MS analysis; assay type: ADME, cell-free; details: read-out: Stability
[22] = Stability in human plasma assessed as compound remaining measured after 30 mins by LC-MS/MS analysis; assay type: ADME, cell-free; details: read-out: Stability
[23] = Stability in human plasma assessed as compound remaining measured after 60 mins by LC-MS/MS analysis; assay type: ADME, cell-free; details: read-out: Stability
[24] = Stability in human plasma assessed as compound remaining measured after 120 mins by LC-MS/MS analysis; assay type: ADME, cell-free; details: read-out: Stability
[25] = target: von Hippel-Lindau disease tumor suppressor/Polymerase acidic protein (Influenza A virus (A/Puerto Rico/8/1934(H1N1))) (UniProt P03433+P40337); assay: PROTAC activity at Influenza A virus A/WSN/33(H1N1) flag tagged Polymerase acidic protein/VHL (unknown origin) expressed in HEK293T cells assessed as degradation of PA expression at 0.02 to 10 uM incubated for 24 hrs by Western blotting analysis; assay type: cell-based; details: dose 0.02-10 µM
[26] = Binding affinity to Influenza A virus A/WSN/33(H1N1) flag tagged Polymerase acidic protein assessed as dissociation constant incubated for 48 hrs by microscale thermophoresis assay; details: hek293t
Influenza A virus [27] = assay: Anti-influenza activity against Influenza A virus A/WSN/33(H1N1) infected in MDCK cells assessed as downregulation of nucleoprotein expression at 1.56 to 100 nM incubated for 24 hrs by Western blotting analysis; assay type: functional, organism-based; details: dose 1.56-100 nM
[28] = Cytotoxicity against dog MDCK cells assessed as reduction in cell viability incubated for 48 hrs by CCK-8 assay; assay type: toxicity, cell-based, Canis lupus familiaris
Influenza A virus [29] = assay: Anti-influenza activity against Influenza A virus A/PR/8/34 (H1N1) infected in MDCK cells assessed as inhibition of viral growth at 1.6 nM incubated for 48 hrs by luciferase assay relative to control; assay type: functional
Influenza A virus [30] = assay: Anti-influenza activity against Influenza A virus A/PR/8/34 (H1N1) infected in MDCK cells assessed as reduction in virus-induced cytopathic effect incubated for 48 hrs by CCK-8 assay; assay type: functional, organism-based

## CC(C)(C)c1ccc(C(=O)NC(=S)Nc2ccc(N)cc2)cc1
Influenza A virus [1]
  EC50: 0.332 µM
[2]
  CC50 at 48 h: 72.3 µM
[3]
  selectivity ratio: 218
Influenza B virus [4]
  EC50: 0.151 µM
Influenza B virus [5]
  EC50: 0.167 µM
Influenza A virus [6]
  EC50: > 10 µM
[7]
  half-life: 21.9 min
[8]
  half-life: 26.1 min
[9]
  half-life: 138 min
[10]
  CLint scaled: 15 L/h/kg
[11]
  CLint scaled: 4.59 L/h/kg
[12]
  CLint scaled: 0.695 L/h/kg
[13]
  CLhep predicted: 3.97 L/h/kg
[14]
  CLhep predicted: 1.32 L/h/kg
[15]
  CLhep predicted: 0.446 L/h/kg
[16]
  hepatic extraction ratio at 0.75 h: 0.735
[17]
  hepatic extraction ratio at 0.75 h: 0.712
[18]
  hepatic extraction ratio at 0.75 h: 0.359
[19]
  Stability: 100%
[20]
  remaining at 5 min: 101%
[21]
  remaining at 0.25 h: 102%
[22]
  remaining at 0.5 h: 104%
[23]
  remaining at 1 h: 113%
[24]
  remaining at 2 h: 112%
[25]
  Activity: inactive
[26]
  Kd: 487 µM
Influenza A virus [27]
  Activity: Active
[28]
  CC50 at 48 h: > 200 µM
Influenza A virus [29]
  inhibition at 0.0016 µM: 18%
Influenza A virus [30]
  EC50: 0.024 µM
